No end group written: not given here.
Legend:
[1] = target: T1, human CCL8-647 (Homo sapiens, UniProt P80075); assay: Fluorescent chemokine binding to THP-1 cells (flow cytometry); assay type: cell-based; details: FIG. 16 A, B
T1 construct: purchased Almac (UK)
T1 sequence (P80075 24-99): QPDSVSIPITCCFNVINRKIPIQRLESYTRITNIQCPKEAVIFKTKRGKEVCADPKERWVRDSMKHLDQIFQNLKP
Method: P672_PEP_SCRAM (C-terminally amidated)=[…] FIG. 16(A). […] 60 μM (+) P672_PEP or P672_PEP_SCRAM were incubated with CCL8-647 (2.5 nM) for half an hour at 37° C. prior to adding to THP-1 cells and incubating everything together for a further half an hour at 37° C. Cells were then analysed using fluorescence assisted cell sorting (10,000 cells analysed) and MFI recorded. Experiment carried out in triplicate where each data point is the average of one experiment carried out in technical triplicate. Mean with SEM shown and statistical significance was determined using one-way ANOVA with Sidak's correction for multiple comparisons using Graph Pad Prism 6. ****=P<0.00005, ns=not significant.
Data are shown as mean of two technical replicates. […] Curves were fitted with 4 parameters to estimate IC50.
Fluorescent chemokine (conjugated to AlexaFluor-647) binding to THP-1 cells results in an increase in the cellular fluorescence intensity, which is quantitatively measured using flow cytometry.
Fluorescent Chemokine/Receptor Blocking Assay CCL8-647 (2.5 nM, final) or […] (1.2 nM, final) was incubated for 30 minutes with varying doses of peptide (0-100 μM, final concentration) in 50 μL assay buffer (RPMI-1640+L-glutamine (4 mM)+10% heat treated fetal bovine serum+0.2% DMSO) at 37° C. […]

[2] = target: T2, CCL18 (Homo sapiens, UniProt P55774); assay: Fluorescence polarisation (anisotropy) assay; assay type: binding; details: fluorescence polarisation displacement assay
T2 construct: purchased Peprotech
T2 sequence (P55774 21-89): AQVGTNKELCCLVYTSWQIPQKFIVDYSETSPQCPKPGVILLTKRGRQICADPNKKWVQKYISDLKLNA
Method: (§1) FIG. 14(B). Fluorescence polarisation assay showing binding of chemokines to P672_PEP-FITC. The measured fluorescence anisotropy (y-axis) of P672_PEP-FITC (50 nM) following binding to a fixed dose (1 μM)) of CCL7, CCL8, CCL18 and CXCL1 (negative control). […] Statistical significance was determined using one-way ANOVA with Sidak's correction for multiple comparisons using Graph Pad Prism 6. **=p<0.005, ****=P<0.00005, ns=not significant.
(§2) FIG. 15(C). Displacement of P672_PEP-FITC from CCL18 by P672_PEP. In each case 100 μM (++) or […] (+) of P672_PEP was incubated with P672_PEP-FITC (50 nM)/chemokine (1 μM CCL7 and CCL18; 500 nM CCL8) and the resulting anisotropy measured. A peptide with the P672_PEP sequence scrambled ([…]) served as a negative control (P672_PEP_SCRAM; […]). Experiment carried out in triplicate where each data point is the average of one experiment carried out in technical triplicate. Mean with SEM shown and statistical significance was determined using one-way ANOVA with Sidak's correction for multiple comparisons using Graph Pad Prism 6. *=p<0.05, ***=p<0.0005, ****=P<0.00005, ns=not significant.
(§3) Fluorescence polarization assays were performed using a Clariostar (BMG Tech) plate reader with the supplied FITC excitation and emission filters using 96 half area well plates (Corning). The buffer used (FP assay buffer) was 50 mM HEPES, 150 mM NaCl, 0.1% BSA, 0.002% TWEEN-20, 0.2% DMSO, pH 7.4 and the final volume in each well was 30 μL. Polarization was converted to anisotropy using the equation A=(2*P)/(3−P) where P is polarization and A is anisotropy. For each peptide tested the gain was set to 35 mP and adjusted to a well containing fluorescent peptide only. The polarization of the emitted light in the FITC emission channel was then determined. Experiments were performed as two technical and three biological replicates. Screening of P672 peptide fragments was achieved through incubation of each peptide (50 nM) with 1 μM CCL8 (Peprotech) for 30 minutes in FP assay buffer and the resulting anisotropy of the emitted light determined as above. The chemokine cross binding screen was performed by incubating 1 μM chemokine (Peprotech) with 50 nM BK1.1FITC for half an hour in FP assay buffer and the resulting anisotropy of the emitted light determined as above. To monitor BK1.1FITC Ala mutants of binding to CCL8, 50 nM labelled peptide was incubated with varying concentrations of recombinant CCL8 (0-25 μM, final) in 30 μL FP assay buffer for 30 minutes and the resulting anisotropy of the emitted light determined as above. The anisotropy was plotted as a function of CCL8 concentration and fitted to the equation: Y=Bmax*X/(KD+X)+NS*X+Background, where Y is the measured anisotropy, X is the concentration of CCL8 added, Bmax is the maximum binding, KD is the equilibrium dissociation constant, NS is the slope of the nonlinear regression and Background is the anisotropy when no CCL8 is present, in Graph Pad Prism. Displacement assays were carried out with CCL7, CCL8, and CCL18 (Peprotech, 1 μM). […] For all FP assays, the experiments were carried out as two technical and three biological replicates.

[3] = target: T3, CCL7 (Homo sapiens, UniProt P80098); assay: Fluorescence polarisation (anisotropy) assay; assay type: binding; details: fluorescence polarisation displacement assay
T3 construct: purchased Peprotech
T3 sequence (P80098 24-99): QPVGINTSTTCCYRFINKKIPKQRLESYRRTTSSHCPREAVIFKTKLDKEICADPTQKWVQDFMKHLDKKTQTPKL
Method: as §1, §2, §3

EDEDYEDFFKPVTAYF-NH2 [BK1.1] was tested, and the “Inhibition of CCL8-647 binding to THP-1 cells” value [1] was “could inhibit CCL8-647 binding to THP-1 cells”, the “Displacement of FITC-labelled peptide from CCL18 by unlabelled peptide” value [2] was “indicate its binding” and the “Displacement of FITC-labelled peptide from CCL18 by unlabelled peptide” value ([2]; listed as P672_PEP) was “able to displace labelled peptide bound to chemokine”. The “Displacement of FITC-labelled peptide from CCL7 by unlabelled peptide” value [3] was “indicate its binding” and the “Displacement of FITC-labelled peptide from CCL7 by unlabelled peptide” value ([3]; listed as P672_PEP) was “able to displace labelled peptide bound to chemokine”.
